Data as given in paper PMC3835719 (MedChemComm, 2013).

Key:
[1] = tested on: HT-29 human colon cancer cells; assay: MTT cell growth inhibition, HT-29 colon cancer cells; assay type: cell-based; settings: for Potency enhancement, Colon HT-29: ratio of IC50 values parent NSAID/NOSH-NSAID, 24 hr
[2] = tested on: Jurkat T human leukemia cells; assay: MTT cell growth inhibition, Jurkat T leukemia cells; assay type: cell-based; settings: ratio of IC50 values parent NSAID/NOSH-NSAID, 24 hr
[3] = tested on: MCF-7 (estrogen receptor positive) breast cancer cells; assay: MTT cell growth inhibition, MCF-7 breast cancer cells; assay type: cell-based, human; settings: ratio of IC50 values parent NSAID/NOSH-NSAID, 24 hr
[4] = tested on: BxPC-3 human pancreatic cancer cells; assay: MTT cell growth inhibition, BxPC-3 pancreatic cancer cells; assay type: cell-based; settings: ratio of IC50 values parent NSAID/NOSH-NSAID, 24 hr
[5] = tested on: human mammary epithelial cell line (HMEpC); assay: Cell growth inhibition, normal mammary epithelial cells; assay type: cell-based; settings: IC50 at 24h, HMEpC vs MCF-7
[6] = tested on: HT-29 human colon cancer cells; assay: Proliferation by PCNA antigen expression; assay type: cell-based; settings: at IC50 for cell growth inhibition, 24 hrs
[7] = tested on: HT-29 human colon cancer cells; assay: Cell cycle phases by PI staining and flow cytometry; assay type: cell-based; settings: at IC50
[8] = tested on: human cancer cell lines of colon, breast, pancreas, and leukemia; assay: MTT cell growth inhibition, panel of four cancer cell lines; assay type: cell-based; settings: ratio of IC50 values parent/NOSH compound, 24 h
[9] = tested on: human primary pancreatic epithelial cells (HPDE, ACBRI 515); assay: Cell growth inhibition, normal pancreatic epithelial cells; assay type: cell-based; settings: 24 h, read-out: IC50 for cell growth inhibition, Pancreatic Epithelial HPDE (ACBRI 515)

Structure (SMILES)	Fold more potent than the combination (sum of its parts) ([1]; HT-29, intact molecule vs naproxen plus SNAP and ADT-OH)	Potency enhancement, Colon HT-29 [1]	Potency enhancement, Leukemia Jurkats [2]	Potency enhancement, Breast MCF-7 [3]	Potency enhancement, Pancreas BxPC-3 [4]	Fold more potent in breast cancer cell line (MCF-7) than in normal HMEpC cells [5]	Reduction of proliferation (PCNA expression) [6]	Mode of cell cycle arrest [7]	Enhanced potency over parent compound, range over the cancer cell lines [8]	IC50 [9]
C[C@H](C(=O)Oc1ccc(-c2cc(=S)ss2)cc1)c1ccc2cc(OC(=O)CCCO[N+](=O)[O-])ccc2c1 [NOSH-NAP, (S)-6-(1-oxo-1-(4-(3-thioxo-3H-1,2-dithiol-5-yl)phenoxy)propan-2-yl) naphthalen-2-yl 4-(nitrooxy) butanoate]	approximately 8000 fold	~34,000	~25,000	~20,000	~16,000	approximately 115 fold	approximately 50%	G0/G1 cell cycle block	16,000-34,000 fold	
CC1=C(CC(=O)Oc2ccc(OC(=O)CCCO[N+](=O)[O-])c(C(=O)Oc3ccc(-c4cc(=S)ss4)cc3)c2)c2cc(F)ccc2/C1=C\c1ccc([S+](C)[O-])cc1 (stereo not drawn) [NOSH-SUL, (Z)-4-(3-thioxo-3H-1,2-dithiol-5-yl) phenyl 5-(2-(5-fluoro-2-methyl-1-(4-(methylsulfinyl)benzylidene)-1H-inden-3-yl)acetoxy)-2-((4-(nitrooxy)butanoyl)oxy) benzoate]		~9,000	~2,500	~9,650	~8,200	about 150 fold	approximately 50%	G2/M block	2,500-9,650 fold	> 25 µM
